Results taken from patent US20200188361A1, “USE OF MITOCHONDRIAL ACTIVITY INHIBITORS FOR THE TREATMENT OF POOR PROGNOSIS ACUTE MYELOID LEUKEMIA” (UNIVERSITE DE MONTREAL, priority 2016, published 2020).

Key:
OCI-AML3 leukemic cells = settings: acute injection, 1 μM (FIG. 5E)
Method: Oxygen consumption rates and extracellular acidification rates were measured using a 96-well Seahorse Bioanalyzer XFe96® or XFe24® according to the manufacturer's instructions (Agilent Technologies). Seahorse XF Base medium was supplemented with 1 mM pyruvate, 2 mM glutamine and 10 mM glucose in the case of Mitochondrial Stress Test and with 1 mM pyruvate, 2 mM glutamine and no glucose in the case of Glycolytic Stress Test. The pH of the Seahorse media was then adjusted at 7.4 prior to assay. In brief, leukemic cells were seeded into Seahorse 96-well (or 24-well) plates pre-coated for 3 h with poly-lysine (Sigma-Aldrich, P4707) at a density of 75,000 cells/well in 100 μL (or 150,000 cells/well, in 150 μL) of temperature/CO2 pre-adjusted Seahorse media per well. The Seahorse plates were then centrifuged at 1400 rpm for 5 min. An additional 75 μL (or 375 μL) of Seahorse media was then added and cells were eventually analyzed following the manufacturer's instructions by adding compounds in a constant volume of 25 μL (or 75 μL). Compounds were acutely injected in cells at a final concentration of 1 μM for Mubritinib, 1 μM for Oligomycin, 0.5 μM for FCCP, 0.5 μM for Rotenone/Antimycin A, Glucose 10 mM and 2-Deoxy-Glucose 50 mM.

OCI-AML3 cells = assay: Dose-response curves in AML cell line (6-day culture assay in 384-well plates); type: cell-based; settings: FIG. 4E
Method: FIGS. 5A-5J show the results on experiments assessing the mode of action of Mubritinib for mediating tumor cell death. FIG. 5A: OCI-AML3 leukemic cells were either pre-incubated for 4 hours with 6 mM N-acetyl-cysteine (NAC), a reactive oxygen species (ROS) scavenger, or with vehicle (water) before being treated with 100 nM Mubritinib for 24 h or vehicle (DMSO). […] FIGS. 5C and 5D show the levels of reduced and oxidized levels of glutathione, respectively, in OCI-AML3 treated or not with Mubritinib, as detected by liquid chromatography-mass spectrometry (LC/MS). […] FIG. 5G is a graph depicting dose-response curves upon Mubritinib treatment (6-day culture assay in 384-well plates) of OCI-AML3 and OCI-AML5 cell lines. FIGS. 5H-J are graphs depicting dose-response curves following treatment of OCI-AML3 and OCI-AML5 cell lines with other ETC inhibitors, namely Oligomycin (inhibitor of complex V, FIG. 5H), Rotenone (inhibitor of complex I, FIG. 5I) and Deguelin (inhibitor of complex I, FIG. 5J).
OCI-AML3 cells were maintained in alpha-MEM, 20% FBS whereas breat tumor BT474 cells were maintained in DMEM 10% FBS.
(§1) Patient cells were seeded in 384-well plates at a density of 5,000 cells in 50 μL per well. In the initial screen, compounds were added to seeded cells in serial dilutions (10 dilutions, 1:3, starting from 10 μM or 20 μM), in duplicates. Cells treated with 0.1% DMSO without additional compound were used as negative controls. Viable cell counts per well were evaluated after 6 days of culture using the CellTiterGlo® assay (Promega®) according to the manufacturer's instruction. The percent of inhibition was calculated as follows: 100−(100×(mean luminescence(compound)/mean luminescence(DMSO)); where mean-luminescence(compound) corresponds to the average of luminescent signals obtained for the compound-treated cells, and mean-luminescence(DMSO) corresponds to the average of luminescent signals obtained for the control DMSO-treated cells.

AML patient specimens = assay: Cell dose-response viability assay on AML patient specimens (primary and validation screen); type: cell-based, human; settings: Homo sapiens; poor prognostic triple-mutated specimens (FIG. 3G); read-out: median EC50 in AML specimens with simultaneous mutations in NPM1, DNMT3A and FLT3-ITD
Method: frozen AML mono-nucleated cells were thawed at 37° C. in Iscove's modified Dulbecco's medium (IMDM) containing 20% FBS and DNase I (100 μg/mL).
as §1

FC(F)(F)c1ccc(/C=C/c2nc(COc3ccc(CCCCn4ccnn4)cc3)co2)cc1 [Mubritinib, 1-(4-{4-[(2-{(E)-2-[4-(trifluoromethyl)phenyl]ethenyl}-1,3-oxazol-4-yl)methoxy]phenyl}butyl)-1H-1,2,3-triazole]
oxygen consumption rate (OCI-AML3 leukemic cells): impaired oxygen consumption rate | sensitivity of OCI-AML3 cells (dose response curves) (OCI-AML3 cells): sensitive | EC50 (AML patient specimens): 96 nM
